In publication PMC10976043, “Function and Mechanism of Antiviral Wasp Venom Peptide Protopolybia-MP III and Its Derivatives against HSV-1” (Toxins, 2024):
Ends that are not written are not given here.

Tests used:
HSV-1 virion [1] = experiment: HSV-1 free virion infectivity assay, qPCR; format: cell-based, herpes simplex virus type 1; conditions: then Vero cells infected, 24 h
Experimental: (§1) Figure 5 Protopolybia-MP III destroys the integrity of HSV-1 free virions. (A) Schematic diagram for studying the effect of Protopolybia-MP III on HSV-1 free virion infectivity. (B) Effects of Protopolybia-MP III on HSV-1 free virion infectivity at different temperatures. HSV-1 (MOI = 1) and 20 μg/mL Protopolybia-MP III or PBS were coincubated at 4 °C, 22 °C, and 37 °C for 1 h, and then Vero cells were infected as described in (A). After 24 h, cells were collected, and intracellular HSV-1 RNA was analyzed by qPCR. (C) Effects of different concentrations of Protopolybia-MP III on HSV-1 free virion infectivity. HSV-1 (MOI = 1) and 1 or 10 μg/mL Protopolybia-MP III or PBS were coincubated at 37 °C for 1 h, and then Vero cells were infected as described in (A). After 24 h, cells were collected, and intracellular HSV-1 RNA was analyzed by qPCR. (D,E) The effect of Protopolybia-MP III on HSV-1 free virion integrity. HSV-1 and 20 μg/mL Protopolybia-MP III or PBS were coincubated at 37 °C for 1 h. Then, after centrifuging for 2 h at 40,000 rpm at 4 °C, the contents of HSV-1 gB in the supernatant and precipitate were detected by Western blotting (D). In addition, the structure of HSV-1 virions after incubation with Protopolybia-MP III was observed by electron microscopy. The red arrow points to a destroyed HSV-1 virion. *** p < 0.001.
Figure 7 Antiviral activity analysis of Protopolybia-MP III mutants. (A) Amino acid sequences of Protopolybia-MP III mutants. Identical amino acids among Protopolybia-MP I, Protopolybia-MP III, and its mutants are marked in blue, and different amino acids are marked in red. (B) Suppression of Protopolybia-MP I, Protopolybia-MP III, and its mutants on intracellular HSV-1 content. Cells were preincubated with 20 μg/mL peptides or PBS for 1 h and then infected with HSV-1 at an MOI of 1. After 24 h, the cells were collected. Intracellular HSV-1 ICP0 protein levels were analyzed by Western blotting. The ratios of HSV-1 ICP0 to GAPDH were calculated by ImageJ software. (C) Inhibition of HSV-1 free virion infectivity by Protopolybia-MP I, Protopolybia-MP III, and its mutants. HSV-1 (MOI = 1) and 5 μg/mL peptides or PBS were coincubated at 37 °C for 1 h, and the mixtures were then used to infect Vero cells. After 24 h, cells were collected, and intracellular HSV-1 RNA was analyzed by qPCR. ns, no significance. * p < 0.05. ** p < 0.01. *** p < 0.001.
Cells were collected and lysed using TRIzol reagent (Beyotime Biotechnology, Shanghai, China) to release the intracellular total RNA, followed by precipitation with isopropanol. The first-strand cDNA was reverse-transcribed by the HiScript III 1st Strand cDNA Synthesis Kit (+gDNA wiper) (Vazyme, Nanjing, China). The cDNA was quantitated by qPCR with primers using Taq Pro Universal SYBR qPCR Master Mix (Vazyme). The HSV-1 primers were 5′-[…]-3′ (sense) and 5′-[…]-3′ (antisense). The monkey GAPDH primers were 5′-[…]-3′ (sense) and 5′-[…]-3′ (antisense). The human GAPDH primers were 5′-[…]-3′ (sense) and 5′-[…]-3′ (antisense). qPCR experiments were performed on a Bio-Rad CFX96 Touch (Pleasanton, CA, USA) according to the manufacturer’s instructions.

HSV-1 virion [2] = experiment: Virion integrity assay (ultracentrifugation/gB Western blotting, electron microscopy); set-up: species or system herpes simplex virus type 1; conditions: 20 μg/mL with HSV-1 at 37 °C 1 h
Experimental: as §1
HSV-1 virions were coincubated with PBS or 20 μg/mL Protopolybia-MP III at 37 °C for 1 h. Then, the virions were separated by ultracentrifugation at 40,000 rpm at 4 °C for 2 h in a Beckman SW41 rotor (Beckman Coulter, Brea, CA, USA). The supernatant was collected and lyophilized using a vacuum freeze dryer (Labconco FreeZone6L, Kansas City, MO, USA). HSV-1 glycoprotein gB from both the precipitate and supernatant components were measured by Western blotting. In addition, after HSV-1 was coincubated with PBS or 20 μg/mL Protopolybia-MP III at 37 °C for 1 h, samples were placed on 200-mesh var/carbon-coated copper grids by dipping the grids into the virion sample solutions. […]

[3] = ultracentrifugation 40,000 rpm 2 h 4 °C, Western blotting

With “INWLKLGKAVIDAL-NH2 [Protopolybia-MP III]” the HSV-1 virions inactivated (HSV-1 virion [1]; 1 μg/mL coincubated with HSV-1 (MOI 1) at 37 °C for 1 h) was 51%, the HSV-1 virions inactivated (HSV-1 virion [1]; 10 μg/mL coincubated with HSV-1 (MOI 1) at 37 °C for 1 h) was 99% and the “inhibition rate of HSV-1 virion infectivity” value (HSV-1 virion [1]; 20 μg/mL coincubated with HSV-1 (MOI 1) at 4 °C for 1 h) was “above 99%”. For the same substance, the “inhibition rate of HSV-1 virion infectivity” value (HSV-1 virion [1]; 20 μg/mL coincubated with HSV-1 (MOI 1) at 22 °C for 1 h) was “above 99%”, the “inhibition rate of HSV-1 virion infectivity” value (HSV-1 virion [1]; 20 μg/mL coincubated with HSV-1 (MOI 1) at 37 °C for 1 h) was “above 99%” and the “inhibition rate of HSV-1 free virion infectivity” value (HSV-1 virion [1]; mutant comparison (Figure 7C): 5 μg/mL coincubated with HSV-1 (MOI 1) at 37 °C for 1 h) was 97.3%. The “HSV-1 virion structure by electron microscopy” value (HSV-1 virion [2]; negative staining) was “destroyed”, the “gB content in the precipitate compared with PBS treatment” value (HSV-1 virion [2]; [3]) was “significantly reduced” and the “gB content in the supernatant compared with PBS treatment” value (HSV-1 virion [2]; [3]) was “increased”.
